Experimental data published in US12516237B2, “Alkyl lactone-derived corrosion inhibitors” (ChampionX LLC, priority 2018, dated 2026).

Experiment: Bubble cell test: corrosion rate of steel electrode by aqueous linear polarization resistance (LPR) in CO2-saturated synthetic oilfield brine/oil
Conditions: 15 h after dosing, 80° C., 80% water cut, CO2 purge, C1018, samples 10 ppm of 20% active + 2% 2ME; for % Protection (corrosion inhibition): relative to baseline corrosion rate before dosing, comparatives 20 ppm of 10% active + 1% 2ME; for Inhibited Corrosion Rate: comparatives 20 ppm of 10% active + 1% 2ME (same active concentration)
Description: The bubble cell test was used to investigate the effectiveness of alkyl lactone-derived hydroxyamides as corrosion inhibitors. This test measures the corrosion rate of a steel electrode by aqueous linear polarization resistance (LPR). The steel electrodes (C1018) were placed in a bath of synthetic oilfield brine which was deaerated with carbon dioxide. The corrosion rate of the electrode was compared in the absence or presence of an alkyl lactone-derived hydroxyamide.
The synthetic oilfield brine contained about 3 wt % of sodium chloride, and the oil included a synthetic oil of INT-200 and xylene. The ratio of water to oil was 80:20. The oil/brine was placed into bubble cells and purged with CO2. The oil/brine was continually purged with CO2 to saturate the oil/brine prior to starting the test. The test cells were blanketed with CO2 throughout the duration of the test to maintain saturation. The bubble cells were stirred at 100 revolutions per minute (rpm) for the duration of the test to maintain thermal equilibrium at 80° C. The electrodes were all cleaned and polished prior to testing.
After about 3 hours of pre-corrosion time (i.e. without a corrosion inhibitor) 10 ppm of a 20% active of an alkyl-lactone chemistry (shown in Table 2 and prepared as described in Example 1) with 2% 2-mercaptoethanol (2ME) solvent was added. Comparison with a benzyl ammonium chloride quarternary chemistry and imidazoline chemistry was made at the same active concentration as the alkyl lactone together with 2ME (at the same dose based on chemistry and 2ME activity—i.e. these were dosed at twice the concentration because the active and 2ME in the test blend was half).

| Structure (SMILES) | % Protection (corrosion inhibition) | Inhibited Corrosion Rate |
| --- | --- | --- |
| CCCCCCCC(O)CCC(=O)NCCCN(C)C (stereo not drawn) [Sample 1, γ-Undecalactone/DMAPA] | 37% | 181 mpy |
| CCCCCCC(O)CCCC(=O)NCCCN(C)C (stereo not drawn) [Sample 2, δ-Undecalactone/DMAPA] | 43% | 151 mpy |
| CCCCC(O)CCC(=O)NCCCN(C)C (stereo not drawn) [Sample 3, γ-Octalactone/DMAPA] | 31% | 177 mpy |
